Data taken from US10975056B2 (GlaxoSmithKline Intellectual Property Development Limited, priority 2016, dated 2021).

Key:
[1] = tested on: CpG sites in or near the promoter regions of HBG1 and HBG2 gene loci; assay: Bisulfite sequence analysis of HBG1/HBG2 DNA methylation in EPCs; assay type: cell-based, human; conditions: EPCs treated for 3 days, average of nine sites
Method: To assay the effect of Compound A on DNA methylation, EPCs treated for 3 days with Compound A were harvested and genomic DNA was bisulfite sequenced. Methylation of nine CpG sites in or near the promoter regions of HBG1 and HBG2 gene loci were selected and analyzed based on their previous characterization as sites of DNMT1 methylation during erythropoiesis (Mabaera et al. Blood: 110 (4). 2007).
Bisulfite Sequence Analysis
Genomic DNA was extracted in duplicate from Day 7 EPCs cultured at 37° C. with 5% CO2 and 5% O2 for 3 days in the presence of compound using a ZYMO gDNA kit (Zymo Research, Irvine, Calif.). The isolated DNA was bisulfite converted using a Zymo EZ DNA Methylation Kit. Primer sets for Bisulfite treated regions within the HBG1 and HBG2 were designed using ABI Methyl Primer Express Software. Analyzed regions included 9 previously described sites of DNMT1-dependent DNA methylation (Mabaera et al. Blood: 110 (4). 2007). DNA was further amplified on the fluidigm and QC'd using the Agilent bio-analyzer. MiSeq was performed using the IIlumina system and the output was Analyzed using ArrayStudio v8 and CLC-GWB v8.1.

[2] = tested on: erythroid progenitor cells (EPCs); assay: Cell growth analysis in day 7 EPCs (Cell Titer-Glo); assay type: cell-based; conditions: Homo sapiens, read-out: cell growth inhibition by 50%, average pGI50 (converted), 5 days
Method: Day 7 EPCs were cultured in duplicate plates with serially diluted Compound A for 5 days at 37° C. Wells were then analyzed for either induction of fetal hemoglobin (HbF,HbF ELISA) or cell growth (Cell Titer-Glo). In both cases, signal was normalized to vehicle-control treated cells.
All donors provided written informed consent for use of their samples, and the collection and use of the samples received institutional review board approval. All cryopreserved human bone marrow CD34+ cells used here were obtained from AlICells (Emeryville, Calif.) and were generally from different donors. The CD34+ cells were cultured to generate EPCs at day 7. […]
At the time of compound treatment, frozen day 7 EPCs prepared as described above were thawed, washed once and re-suspended in complete culture media as described above with the exception of an increase of rhEPO to 3 U/mL. Cells were counted and diluted to […] for plating into assay plates. […]
Cell growth assays were performed on cell culture plates after 5 days incubation at 37° C. with 5% CO2. […] The plates were then incubated at room temperature for 10 min prior to reading on ViewLux 1430 (Perkin Elmer) using a luminescence protocol. Average reading of control wells (16 wells in column 6 of each assay plate) containing DMSO only were used as the basal level for normalization. […]

SCD transgenic mice = assay: Fetal hemoglobin in SCD transgenic mouse model, F-reticulocytes and F-RBCs by flow cytometry; assay type: in vivo; conditions: oral, 10 or 50 mg/kg BID daily, measured by flow cytometry
Source text: FIG. 2B depicts the effect of Compound A on fetal hemoglobin in the transgenic mouse model.

% F-RBCs (SCD transgenic mice): dose dependent increases
% F-reticulocytes (SCD transgenic mice): dose dependent increases
SMILES: CCc1c(C#N)c(SC(C(N)=O)c2ccccc2)nc(N(C)C)c1C#N (stereo not shown) [Compound A, 2-{[3,5-dicyano-6-(dimethylamino)-4-ethylpyridin-2-yl]sulfanyl}-2-phenylacetamide]
decrease in methylation of nine CpG sites compared with vehicle treated cells [1]: 65±5%
GI50 [2]: 1260 nM
